The source of these data is patent US5147878A, “Aminoalkoxyphenyl derivatives, process of preparation and compositions containing the same” (Sanofi, priority 1986, dated 1992).

A word on the inhibition in vivo: it is the change of the read-out against control, counted positive when it falls. Broadly, the LD50 is the dose expected to kill half of the subjects tested.

Data set [1] has as its system isolated rat aorta. The experiment in a line: Calcium inhibitory properties: contractile response to potassium-induced depolarization on isolated rat aorta. To be noted: for activity at 1 µM / activity at 0.1 µM / activity at 0.01 µM / activity at 0.001 µM: Rattus norvegicus, 1 h, read-out: % of the maximum contractional effect; for activity at 1 µM: 10^-6 M; for activity at 0.1 µM: 10^-7 M; for activity at 0.01 µM: 10^-8 M; for activity at 0.001 µM: 10^-9 M. The arrangement: species or system isolated organ, male Wistar rats. In outline: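 Contraction is expressed as % of the pre-incubation maximum, measured after a 60 min compound exposure and a fresh K+ (100 mM KCl) depolarization. Tissue: aortic strips from male Wistar rats, 2 g tension, modified Krebs-bicarbonate, 37° C, CO2/O2 gassed.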

For data set [2], the system named is epinephrine-induced increase in blood-pressure (anti-α effect). The experiment in a line: Antiadrenergic properties: anti-α effect (reduction of epinephrine-induced hypertension). The arrangement: key to anti-α effect: +: for a reduction < 50%; ++: for a reduction ≥ 50%; +++: for a reduction sub-total (almost complete reduction). The data set is classed as in vivo. The note with it: dog; for inhibition in vivo at 1 mg/kg: 1 mg/kg i.v.; for anti-α effect: 0.1 mg/kg i.v. An outline of the steps:
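Pentobarbital-anaesthetised, atropinised dogs given an epinephrine dose of 3–10 μg/kg, titrated per animal to raise blood pressure about 133×10^2 Pa. After two reference responses, test compound given intravenously. Result is % reduction of epinephrine-induced hypertension versus reference.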

Data set [3] has as its system isoprenaline-induced acceleration in heart rate (anti-β effect). The experiment in a line: Antiadrenergic properties: anti-β effect (reduction of isoprenaline-induced tachycardia). The data set is classed as in vivo. The arrangement: key to anti-β effect: +: for a reduction < 50%; ++: for a reduction ≥ 50%; +++: for a reduction sub-total (almost complete reduction). To be noted: dog; for inhibition in vivo at 1 mg/kg: 1 mg/kg i.v. In outline: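 Pentobarbital-anaesthetized, atropinized dogs given isoprenaline (1–2 μg/kg, dose set per dog for ~70 beats/min rise) alternating with epinephrine every 10 min. After two reference responses, compound given intravenously; % reduction in isoprenaline tachycardia versus reference recorded.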

Data set [4] can be described thus: Acute toxicity, intravenous, Litchfield and Wilcoxon. To be noted: mouse, in vivo, mice. As for the experimental part:
The acute toxicity of the compounds of the invention was determined intravenously in mice according to the method of Litchfield and Wilcoxon (J. Pharm. Exp. Therap. […], 96, 99).
The following results were obtained, expressed in the form of the LD50, compared with a benzoylindolizine derivative, in this case 2-ethyl-3-{4-[3-(di-n-butylamino)propyloxy]benzoyl}indolizine or butoprozine.

Where [5] appears, read: Canis lupus familiaris, iv, 5 mg/kg i.v.

Some results are limits rather than exact numbers.

Turning to `CCCCN(CCCC)CCCOc1ccc(S(=O)(=O)c2c(CC)cn3ccccc23)cc1C.Cl` [Ex. 9, 2-Ethyl-1-{4-[3-(di-n-butylamino)propyloxy]-3-methylbenzenesulphonyl}indolizine hydrochloride], the activity at 1 µM in data set [1] was determined as 17.4%. Besides, the activity at 0.1 µM in data set [1] came out at 57.2%. For the same molecule, the inhibition in vivo at 1 mg/kg in data set [2] (Canis lupus familiaris, iv) is at least 50%; in data set [3] (Canis lupus familiaris, iv), at least 50%. Besides, the 50% lethal dose (LD50) in data set [4] amounted to 55 mg/kg.

Consider `CCCCN(CCCC)CCCOc1ccc(S(=O)(=O)c2c(CCC)cn3ccccc23)cc1.O=C(O)C(=O)O` [Ex. 11, 2-n-Propyl-1-{4-[3-(di-n-butylamino)propyloxy]benzenesulphonyl}indolizine oxalate], for which, in data set [1], the activity at 1 µM stood at 8.8% and the activity at 0.1 µM is 37.7%. The inhibition in vivo at 1 mg/kg in data set [2] (Canis lupus familiaris, iv) is at least 50%. Further, in data set [3] (Canis lupus familiaris, iv), the inhibition in vivo at 1 mg/kg is at least 50%. In data set [4], this molecule yielded an LD50 of 28 mg/kg.

Take `CCCCc1cn2ccccc2c1S(=O)(=O)c1ccc(OCCCN(CCCC)CCCC)cc1.O=C(O)C(=O)O` [Ex. 13, 2-n-Butyl-1-{4-[3-(di-n-butylamino)propyloxy]benzenesulphonyl}indolizine oxalate]: the activity at 1 µM in data set [1] amounted to 39.8%. The Activity ratio in data set [1] (compound / Compound C) amounted to 2.0. Besides, the inhibition in vivo at 5 mg/kg in data set [2] (setting [5]) and in data set [3] (setting [5]) was at least 50% each time. For the same molecule, the LD50 in data set [4] worked out at 31 mg/kg.

With `CCc1cn2ccccc2c1S(=O)(=O)c1ccc(OCCCN(C)CCc2ccc(OC)c(OC)c2)cc1` [Ex. 28, 2-Ethyl-1-[4-{3-[N-methyl-N-(3,4-dimethoxy-β-phenethyl)-amino]propyloxy}benzenesulphonyl]indolizine], in data set [1], the activity at 0.1 µM was found to be 14.2%, the activity at 0.01 µM was determined as 60.2% and the activity at 0.001 µM worked out at 85.4%. Moreover, in data set [2], the anti-α effect entry was “+++”. In data set [3] (Canis lupus familiaris, iv, 0.1 mg/kg i.v.), this molecule returned an inhibition in vivo at 0.1 mg/kg of at least 50%. The molecule further came in with an LD50 in data set [4] of 32 mg/kg.

Consider `COc1ccc(CCN(C)CCCOc2ccc(S(=O)(=O)c3c(C(C)C)cn4ccccc34)cc2)cc1OC` [Ex. 30, 2-Isopropyl-1-[4-{3-[N-methyl-N-(3,4-dimethoxy-β-phenethyl)amino]propyloxy}benzenesulphonyl]indolizine], for which, in data set [1], the activity at 0.1 µM worked out at 9.4%, the activity at 0.01 µM came to 40.1% and the activity at 0.001 µM is 81.7%. Besides, the anti-α effect result in data set [2] is recorded as “+++”. In addition, the anti-β effect entry in data set [3] (0.1 mg/kg i.v.) was “+++”. The molecule further displayed a median lethal dose (LD50) in data set [4] of 140 mg/kg.
